Test results reported in patent EP4755892A1, “KINESIN KIF18A INHIBITOR AND USE THEREOF” (Shanghai Apeiron Therapeutics Company Limited, priority 2023, dated 2025).
Where two headings read alike, the source gives them in different places.

Columns and labels:
[1] = molecular target: T1, Human KIF18A (amino acid sequence 1-417) (Homo sapiens, UniProt Q8NI77); assay: Enzymatic Activity Test (ADP-Glo, microtubule-stimulated KIF18A ATPase); assay type: biochemical; conditions: 60 µg/mL microtubules, 25 µM ATP, 2.5 nM KIF18A protein, 120 min at ambient temperature, chemiluminescence; read-out: KIF 18A IC50
T1 construct: purchased Viva Biotech (Shanghai) Ltd
T1 sequence (Q8NI77 1-417): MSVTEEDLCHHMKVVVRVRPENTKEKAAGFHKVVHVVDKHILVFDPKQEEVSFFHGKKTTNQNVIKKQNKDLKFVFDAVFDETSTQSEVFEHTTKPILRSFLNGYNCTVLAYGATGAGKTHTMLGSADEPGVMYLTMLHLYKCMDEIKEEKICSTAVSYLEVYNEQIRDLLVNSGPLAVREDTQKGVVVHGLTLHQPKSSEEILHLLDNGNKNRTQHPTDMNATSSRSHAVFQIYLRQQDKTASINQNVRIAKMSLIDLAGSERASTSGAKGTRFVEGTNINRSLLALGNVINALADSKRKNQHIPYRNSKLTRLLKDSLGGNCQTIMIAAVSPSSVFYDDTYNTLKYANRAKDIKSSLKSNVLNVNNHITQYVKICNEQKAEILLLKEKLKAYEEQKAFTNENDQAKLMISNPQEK
Method: Assay 1: Enzymatic Activity Test
Materials: Human KIF18A (amino acid sequence 1-417) was purchased from Viva Biotech (Shanghai) Ltd.; the ADP-Glo™ protein kinase kit was acquired from Promega, USA; tubulin was sourced from Cytoskeleton, USA; and the 384-well assay plate and Envision multifunctional microplate reader were obtained from PerkinElmer, USA.
Enzymatic Activity Test: The compound powder was dissolved in DMSO to prepare a stock solution of 10 mM. Then gradient dilution was performed for the compounds in the microplate to achieve a final concentration of 0-10 µM. Then, 2.5 µL each of tubulin, compound, ATP, and KIF18A protein were added to the microplate in sequence for reaction at ambient temperature for 120 min. The final concentrations in the enzyme reaction were 60 µg/mL for microtubules, 25 µM for ATP, and 2.5 nM for KIF18A protein. After the enzyme reaction, 10 µL of ADP-GLO reaction reagent was added to each well and incubated at room temperature for 30 min. After that, 20 µL of detection reagent was added to each well and incubated at room temperature for 30 min in the dark. Finally, chemiluminescence detection was performed using the PerkinElmer Envision.

OVCAR3 cells = assay: Cell Proliferation Activity Test (CyQUANT Direct), OVCAR3; assay type: cell-based; conditions: compound 0-10 µM, 3 days, 0.2% DMSO, CyQUANT fluorescence, read-out: OVCAR-3 _IC50_nM
Method: Assay 2: Cell Proliferation Activity Test
Materials and Cells: OVCAR3 cells were purchased from Nanjing Cobioer Biosciences Co., Ltd. RPMI-1640 medium, fetal bovine serum, and the CyQUANT Direct Cell Proliferation Assay kit were purchased from Thermo Fisher Scientific, USA; 96-well cell culture plates were sourced from Coming, USA.
Cell Culture: OVCAR3 cells were cultured with RPMI-1640 medium containing 10% fetal bovine serum and incubated in a 5% CO2 incubator at 37°C. Only cells in the logarithmic growth phase could be used for the test.
Cell Proliferation Activity Test:
OVCAR3 cells were inoculated into a 96-well cell culture plate at 90 µL per well and incubated overnight in a 5% CO2 incubator at 37°C. The compound powder was dissolved in DMSO to prepare a stock solution of 10 mM. Then gradient dilution was performed for the compounds in the microplate to achieve a final concentration of 0-10 µM. 10 µL of cell culture medium containing compounds was added to each well to make the final DMSO content 0.2%. The cell plates were incubated in a 5% CO2 incubator at 37°C for 3 days. 100 µL of CyQUANT detection reagent was added to each well, reacted at 37°C for 60 min, and fluorescence detection was performed using the PerkinElmer Envision.

HT29 cells = assay: CyQuant Cell Proliferation Activity Test, HT29; assay type: cell-based; conditions: HT29 cells 2000 per well, initial concentration 3000 nM, 3-fold dilution, 3 days, 0.2% DMSO, read-out: HT29_IC50 _nM
Method: Assay 3: CyQuant Cell Proliferation Activity Test
Materials and Cells: HT29 cells were purchased from Nanjing Cobioer Biosciences Co., Ltd.; RPMI-1640 medium, fetal bovine serum, Trypsin-EDTA (0.25%), 96-well plates, and CyQuant reagents were purchased from ThermoFisher (USA); DMSO was purchased from SIGMA (USA).
Cell Culture: HT29 cells were cultured with RPMI-1640 containing 10% fetal bovine serum under the condition of 37°C and 5% CO2. Only cells in the logarithmic growth phase could be used for the test.
Cell Proliferation Activity Test: CyQuant reagent was used to detect the proliferation inhibitory activity of compounds on HT29 cells. The cell density was adjusted, and 100 µL per well was inoculated into a 96-well plate (HT29 at 2000 cells per well), then incubated overnight at 37°C and 5% CO2. Add compounds of various target concentrations (initial concentration of 3000 nM, 3-fold dilution, 9 concentration gradients), and make the DMSO content 0.2%. The cell plate was incubated at 37°C in 5% CO2 for 3 days. CyQuant reagent was added and incubated for 1 h. The plates were read by Envision, and IC50 was calculated using XLFIT.

Row | IC50 [1] [nM] | IC50 (OVCAR3 cells) [nM] | IC50 (HT29 cells) [nM] | IC50 (OVCAR3 cells; Homo sapiens, OVCAR-3, 72 h) [nM] | IC50 (HT29 cells; Homo sapiens, HT-29, 72 h) [nM] | Compound
1 | 98 | 76 | 68 | – | – | Cc1cc2nc(n1)N1CCCC(CCCC3CCN(CC3)c3cc(NS(=O)(=O)CCO)ccc3C(=O)N2)C1 (stereo not shown) [Example 3, 2-Hydroxy-N-(2^6-methyl-4-oxo-3-aza-2(2,4)-pyrimidin-1(1,3),6(1,4)-dipiperidin-5 (1,2)-benzeneheterocyclononane-5^4-yl)ethane-1-sulfonamide]
2 | 36 | 61 | 78 | – | – | Cc1cc2nc(n1)N1CCCC(C=CCC3CCN(CC3)c3cc(NS(=O)(=O)CCO)ccc3C(=O)N2)C1 (stereo not shown) [Example 1C, 2-Hydroxy-N-((1^3S,Z)-2^6-methyl-4-oxo-3-aza-2(2,4)-pyrimidin-1(1,3),6(1,4)-dipiperidin-5(1,2)-benzoaza-8-en-5^4-yl)ethane-1-sulfonamide]
3 | > 3000 | > 3000 | > 3000 | – | – | Cc1cc2nc(n1)N1CCCC(C=CCC3CCN(CC3)c3cc(NS(=O)(=O)CCO)ccc3C(=O)N2)C1 (stereo not shown) [Example 1A, 2-Hydroxy-N-((1^3S,E)-2^6-methyl-4-oxo-3-aza-2(2,4)-pyrimidin-1(1,3),6(1,4)-dipiperidin-5(1,2)-benzoaza-8-en-5^4-yl)ethane-1-sulfonamide]
4 | 23 | – | – | 77 | 136 | O=C1Nc2cccc(c2)S(=O)(=O)NCCCCCC2CCN(CC2)c2cc(NS(=O)(=O)CCO)ccc21 [Example 13, N-(6,6-dioxo-3-oxo-6-thia-4,7-diaza-1(1,4)-piperidin-2(1,2),5(1,3)-diphenylheterocyclododecane-2^5-yl)-2-hydroxy-1-ethanesulfonamide]
5 | 141 | – | – | – | – | Cc1cc2nc(n1)OCCOCCC1CCN(CC1)c1cc(NS(=O)(=O)CCO)ccc1C(=O)N2 [Example 29, 2-Hydroxy-N-(5^6-methyl-3-oxo-6,9-dioxa-4-aza-5(4,2)-pyrimidin-1(1,4)-piperidin-2(1,2)-benzeneheterocycloundecane-2^5)ethane-1-sulfonamide]
6 | 41 | 29 | 31 | – | – | Cc1cc2nc(n1)N1CCC(F)(F)C(C=CCC3CCN(CC3)c3cc(NS(=O)(=O)CCO)ccc3C(=O)N2)C1 (stereo not shown) [Example 18C, N-((1^3S,Z)-1^4,1^4-difluoro-2^6-methyl-4-oxo-3-aza-2(2,4)-pyrimidin-1(1,3),6(1,4)-dipiperidin-5(1,2)-benzeneheterocyclononane-8-en-5^4-yl)-2-hydroxyethane-1-sulfonamide]
7 | 246 | 506 | 746 | – | – | Cc1cc2nc(n1)N1CCCC(C=CCC3CCN(CC3)c3cc(NS(=O)(=O)CCO)ccc3C(=O)N2)C1 (stereo not shown) [Example 1D, 2-Hydroxy-N-((1^3R,Z)-2^6-methyl-4-oxo-3-aza-2(2,4)-pyrimidin-1(1,3),6(1,4)-dipiperidin-5(1,2)-benzoaza-8-en-5^4-yl)ethane-1-sulfonamide]
8 | 8 | – | – | 74 | 178 | Cc1cc2nc(n1)N1CCCC(C=CCC3CCN(CC3)c3cc(NS(=O)(=O)CCO)cnc3C(=O)N2)C1 (stereo not shown) [Example 2, (Z)-2-Hydroxy-N-(2^6-methyl-4-oxo-3-aza-2(2,4)-pyrimidin-5(2,3)-pyridin-1(1,3),6 (1,4)-dipiperidinylcyclononane-8-en-55-yl)ethane-1-sulfonamide]
9 | 46 | 12 | 16 | – | – | Cc1cc2nc(n1)N1CCC(F)(F)C(C=CCC3CCN(CC3)c3cc(NS(=O)(=O)CCO)ccc3C(=O)N2)C1 (stereo not shown) [Example 18B, N-(1^3R,E)-1^4,1^4-difluoro-2^6-methyl-4-oxo-3-aza-2(2,4)-pyrimidin-1(1,3),6(1,4)-dip iperidin-5(1,2)-benzeneheterocyclononane-8-en-5^4-yl)-2-hydroxyethane-1-sulfonamide]
10 | 38 | – | – | 122 | 132 | Cc1cc2nc(n1)N1CCCC(CCC3CCN(CC3)c3cc(NS(=O)(=O)CCO)ccc3C(=O)N2)C1 (stereo not shown) [Example 5, 2-Hydroxy-N-(1^1-methyl-7-oxo-8-aza-1(2,4)-pyrimidin-2(1,3),5(4,1)-dipiperidin-6 (1,2)-benzeneheterocyclooct-6^5-yl)ethane-1-sulfonamide]
11 | 15 | – | – | – | – | Cc1cc2nc(n1)N1CCOC(CCCC3CCN(CC3)c3cc(NS(=O)(=O)CCO)ccc3C(=O)N2)C1 (stereo not shown) [Example 26, 2-Hydroxy-N-((1^2S)-2^6-methyl-4-oxo-3-aza-1(4,2)-morpholin-2(2,4)-pyrimidin-6(1,4)-piperidin-5(1,2)-benzeneheterocyclononane-5^4-yl)ethane-1-sulfonamide]
12 | 2300 | – | – | > 3000 | – | Cc1cc2nc(n1)N1CCCC(C=CC3CCCN(C3)c3cc(NS(=O)(=O)CCO)ccc3C(=O)N2)C1 (stereo not shown) [Example 8, (Z)-2-hydroxy-N-(1^6-methyl-7-oxo-8-aza-1(2,4)-pyrimidin-2(1,3),5(3,1)-dipiperidin-6(1,2)-benzeneheterocyclooct-3-en-6^5-yl)ethane-1-sulfonamide]
13 | 178 | – | – | – | – | Cc1cc2nc(n1)N1CCCC(COCC3CCN(CC3)c3cc(NS(=O)(=O)CCO)ccc3C(=O)N2)C1 (stereo not shown) [Example 28A, 2-Hydroxy-N-((1^3R)-2^6-methyl-4-oxo-8-oxa-3-aza-2(2,4)-pyrimidin-1(1,3),6(1,4)-dipiperidin-5(1,2)-benzeneheterocyclononane-5^4-yl)ethane-1-sulfonamide]
14 | 233 | – | – | 150 | – | Cc1cc2nc(n1)N1CCCC(CCCC3CCCN(C3)c3cc(NS(=O)(=O)CCO)ccc3C(=O)N2)C1 (stereo not shown) [Example 11, 2-Hydroxy-N-(2^6-methyl-4-oxo-3-aza-2(2,4)-pyrimidin-1,6(1,3)-dipiperidin-5(1,2) -benzoylcyclononyl-5^4-yl)ethane-1-sulfonamide]
15 | 743 | – | – | – | – | Cc1cc2nc(n1)N1CCCC(COCC3CCN(CC3)c3cc(NS(=O)(=O)CCO)ccc3C(=O)N2)C1 (stereo not shown) [Example 28B, 2-Hydroxy-N-((1^3S)-2^6-methyl-4-oxo-8-oxa-3-aza-2(2,4)-pyrimidin-1(1,3),6(1,4)-dipiperidin-5(1,2)-benzeneheterocyclononane-5^4-yl)ethane-1-sulfonamide]
16 | 293 | – | – | 548 | – | Cc1cc2nc(n1)N1CCCC(CCC3CCCN(C3)c3cc(NS(=O)(=O)CCO)ccc3C(=O)N2)C1 (stereo not shown) [Example 9, 2-Hydroxy-N-(1^6-methyl-7-oxo-8-aza-1(2,4)-pyrimidin-2(1,3),5(3,1)-dipiperidin-6 (1,2)-benzeneheterocyclooctan-6^5-yl)ethane-1-sulfonamide]
